Results on eight compounds are retold here after PubChem BioAssay (NCI).

Molecules are shown by their SMILES.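 These data come from cells grown in 96-well plates and exposed to compound for 48 hours at five concentrations. TGI: total growth inhibition.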 Where only a bound is given, the exact number is not on record here.

For the first test, the system named is NCI-H522 lung. Briefly: inhibition of tumour cell growth, NCI panel, 48 h.
`COc1cc(C2SCC(=O)N2c2ccc(Cl)c(Cl)c2)cc(OC)c1OC` (stereo not given) yielded a TGI greater than 100 µM.
On the same count and under the same terms, the value for `C[C@@]12CCC3C1C=C1C(=O)c4cc(O)ccc4C(=O)[C@]1(O2)[C@@]3(C)C=O` was 11.4 µM; that for `C[C@H]1C2Cc3cc(N)ccc3[C@@]1(C)CCN2CCc1ccccc1` was 31.5 µM.
Still for that read-out and setting: under `NCCCNCCCCNCCCN` stands 0.879 µM; under `CC1(C)OC2C(O)CN3CCS[C@H]3C2O1` (stereo not given in full), greater than 100 µM.
The same measure, in the same setting: under `O=c1c2c(-c3ccccc3)onc2n(-c2ccccc2)c(=O)n1-c1ccccc1` stands 33.2 µM; under `CCCCCC(/C=C/C1CCC(=O)C1CC#C[Si](C)(C)C)OCc1ccccc1` (stereo not given), 28.6 µM; under `CC1(C)OC(=C(C#N)C#N)C(C#N)=C1/C=C/c1ccncc1`, 4.12 µM.

Another test concerns NCI/ADR-RES ovarian. Kind of test: inhibition of tumour cell growth, NCI panel, 48 h.
On to `COc1cc(C2SCC(=O)N2c2ccc(Cl)c(Cl)c2)cc(OC)c1OC` (stereo not given), for which the TGI was greater than 100 µM.
Take `C[C@@]12CCC3C1C=C1C(=O)c4cc(O)ccc4C(=O)[C@]1(O2)[C@@]3(C)C=O`: the TGI worked out at 49.5 µM.
On to `C[C@H]1C2Cc3cc(N)ccc3[C@@]1(C)CCN2CCc1ccccc1`, for which the TGI was greater than 100 µM.
Still for that read-out and setting: the value for `NCCCNCCCCNCCCN` was greater than 91.6 µM; that for `CC1(C)OC2C(O)CN3CCS[C@H]3C2O1` (stereo not given in full) was greater than 100 µM.
The same measure, in the same setting: the value for `O=c1c2c(-c3ccccc3)onc2n(-c2ccccc2)c(=O)n1-c1ccccc1` was 43.2 µM; that for `CCCCCC(/C=C/C1CCC(=O)C1CC#C[Si](C)(C)C)OCc1ccccc1` (stereo not given) was 41.8 µM; that for `CC1(C)OC(=C(C#N)C#N)C(C#N)=C1/C=C/c1ccncc1` was 4.13 µM.

The test system of another test is OVCAR-5 ovarian. Briefly: inhibition of tumour cell growth, NCI panel, 48 h.
For `COc1cc(C2SCC(=O)N2c2ccc(Cl)c(Cl)c2)cc(OC)c1OC` (stereo not given), the TGI came to 98.3 µM.
Still for that read-out and setting: the value for `C[C@@]12CCC3C1C=C1C(=O)c4cc(O)ccc4C(=O)[C@]1(O2)[C@@]3(C)C=O` was 26.3 µM; that for `C[C@H]1C2Cc3cc(N)ccc3[C@@]1(C)CCN2CCc1ccccc1` was greater than 100 µM.
The same measure, in the same setting: the value for `NCCCNCCCCNCCCN` was greater than 100 µM.
The same measure, in the same setting: the value for `CC1(C)OC2C(O)CN3CCS[C@H]3C2O1` (stereo not given in full) was greater than 100 µM; that for `O=c1c2c(-c3ccccc3)onc2n(-c2ccccc2)c(=O)n1-c1ccccc1` was 44 µM; that for `CCCCCC(/C=C/C1CCC(=O)C1CC#C[Si](C)(C)C)OCc1ccccc1` (stereo not given) was 39.5 µM.
Regarding `CC1(C)OC(=C(C#N)C#N)C(C#N)=C1/C=C/c1ccncc1`, the TGI is 8.11 µM.

The next test relates to OVCAR-8 ovarian. Briefly: inhibition of tumour cell growth, NCI panel, 48 h.
`COc1cc(C2SCC(=O)N2c2ccc(Cl)c(Cl)c2)cc(OC)c1OC` (stereo not given) displayed a TGI greater than 100 µM.
With `C[C@@]12CCC3C1C=C1C(=O)c4cc(O)ccc4C(=O)[C@]1(O2)[C@@]3(C)C=O`, the TGI came to 42.6 µM.
The same measure, in the same setting: the value for `C[C@H]1C2Cc3cc(N)ccc3[C@@]1(C)CCN2CCc1ccccc1` was greater than 100 µM; that for `NCCCNCCCCNCCCN` was greater than 100 µM.
On the same count and under the same terms, under `CC1(C)OC2C(O)CN3CCS[C@H]3C2O1` (stereo not given in full) stands greater than 100 µM.
On the same count and under the same terms, the value for `O=c1c2c(-c3ccccc3)onc2n(-c2ccccc2)c(=O)n1-c1ccccc1` was 45.5 µM; that for `CCCCCC(/C=C/C1CCC(=O)C1CC#C[Si](C)(C)C)OCc1ccccc1` (stereo not given) was 31.1 µM; that for `CC1(C)OC(=C(C#N)C#N)C(C#N)=C1/C=C/c1ccncc1` was 3.29 µM.

The subject of the next test is SF-295 CNS. Kind of test: inhibition of tumour cell growth, NCI panel, 48 h.
`COc1cc(C2SCC(=O)N2c2ccc(Cl)c(Cl)c2)cc(OC)c1OC` (stereo not given) returned a TGI greater than 100 µM.
On the same count and under the same terms, the value for `C[C@@]12CCC3C1C=C1C(=O)c4cc(O)ccc4C(=O)[C@]1(O2)[C@@]3(C)C=O` was 22 µM; that for `C[C@H]1C2Cc3cc(N)ccc3[C@@]1(C)CCN2CCc1ccccc1` was 98.8 µM; that for `NCCCNCCCCNCCCN` was greater than 100 µM.
On the same count and under the same terms, under `CC1(C)OC2C(O)CN3CCS[C@H]3C2O1` (stereo not given in full) stands greater than 100 µM; under `O=c1c2c(-c3ccccc3)onc2n(-c2ccccc2)c(=O)n1-c1ccccc1`, greater than 100 µM.
Regarding `CCCCCC(/C=C/C1CCC(=O)C1CC#C[Si](C)(C)C)OCc1ccccc1` (stereo not given), the TGI worked out at 39.8 µM.
Same read-out and setting: the value for `CC1(C)OC(=C(C#N)C#N)C(C#N)=C1/C=C/c1ccncc1` was 5.28 µM.

The next test concerns SR leukemia. Kind of test: inhibition of tumour cell growth, NCI panel, 48 h.
For `COc1cc(C2SCC(=O)N2c2ccc(Cl)c(Cl)c2)cc(OC)c1OC` (stereo not given), the TGI amounted to 83.8 µM.
With `C[C@@]12CCC3C1C=C1C(=O)c4cc(O)ccc4C(=O)[C@]1(O2)[C@@]3(C)C=O`, the TGI was 5.89 µM.
On the same count and under the same terms, under `C[C@H]1C2Cc3cc(N)ccc3[C@@]1(C)CCN2CCc1ccccc1` stands greater than 100 µM; under `NCCCNCCCCNCCCN`, greater than 36.8 µM; under `CC1(C)OC2C(O)CN3CCS[C@H]3C2O1` (stereo not given in full), greater than 100 µM.
Same read-out and setting: under `O=c1c2c(-c3ccccc3)onc2n(-c2ccccc2)c(=O)n1-c1ccccc1` stands greater than 100 µM; under `CCCCCC(/C=C/C1CCC(=O)C1CC#C[Si](C)(C)C)OCc1ccccc1` (stereo not given), greater than 57.4 µM; under `CC1(C)OC(=C(C#N)C#N)C(C#N)=C1/C=C/c1ccncc1`, 4.74 µM.

Another test relates to SW-620 colon. Briefly: inhibition of tumour cell growth, NCI panel, 48 h.
For `COc1cc(C2SCC(=O)N2c2ccc(Cl)c(Cl)c2)cc(OC)c1OC` (stereo not given), the TGI is greater than 100 µM.
On the same count and under the same terms, the value for `C[C@@]12CCC3C1C=C1C(=O)c4cc(O)ccc4C(=O)[C@]1(O2)[C@@]3(C)C=O` was 12.9 µM; that for `C[C@H]1C2Cc3cc(N)ccc3[C@@]1(C)CCN2CCc1ccccc1` was greater than 100 µM.
Still for that read-out and setting: under `NCCCNCCCCNCCCN` stands 14 µM; under `CC1(C)OC2C(O)CN3CCS[C@H]3C2O1` (stereo not given in full), greater than 100 µM; under `O=c1c2c(-c3ccccc3)onc2n(-c2ccccc2)c(=O)n1-c1ccccc1`, greater than 100 µM.
Still for that read-out and setting: the value for `CCCCCC(/C=C/C1CCC(=O)C1CC#C[Si](C)(C)C)OCc1ccccc1` (stereo not given) was greater than 57 µM; that for `CC1(C)OC(=C(C#N)C#N)C(C#N)=C1/C=C/c1ccncc1` was 4.41 µM.

The next test relates to TK-10 renal. Briefly: inhibition of tumour cell growth, NCI panel, 48 h.
In the case of `COc1cc(C2SCC(=O)N2c2ccc(Cl)c(Cl)c2)cc(OC)c1OC` (stereo not given), the TGI is greater than 100 µM.
Still for that read-out and setting: the value for `C[C@@]12CCC3C1C=C1C(=O)c4cc(O)ccc4C(=O)[C@]1(O2)[C@@]3(C)C=O` was 21.7 µM; that for `C[C@H]1C2Cc3cc(N)ccc3[C@@]1(C)CCN2CCc1ccccc1` was greater than 100 µM; that for `NCCCNCCCCNCCCN` was 18.9 µM.
As for `CC1(C)OC2C(O)CN3CCS[C@H]3C2O1` (stereo not given in full), the TGI is greater than 100 µM.
On the same count and under the same terms, the value for `O=c1c2c(-c3ccccc3)onc2n(-c2ccccc2)c(=O)n1-c1ccccc1` was 58.2 µM; that for `CCCCCC(/C=C/C1CCC(=O)C1CC#C[Si](C)(C)C)OCc1ccccc1` (stereo not given) was 60.5 µM; that for `CC1(C)OC(=C(C#N)C#N)C(C#N)=C1/C=C/c1ccncc1` was 4.12 µM.

For the next test, the system named is U251 CNS. Briefly: inhibition of tumour cell growth, NCI panel, 48 h.
`COc1cc(C2SCC(=O)N2c2ccc(Cl)c(Cl)c2)cc(OC)c1OC` (stereo not given) registered a TGI greater than 100 µM.
`C[C@@]12CCC3C1C=C1C(=O)c4cc(O)ccc4C(=O)[C@]1(O2)[C@@]3(C)C=O`: the TGI was determined as 19 µM.
On to `C[C@H]1C2Cc3cc(N)ccc3[C@@]1(C)CCN2CCc1ccccc1`, for which the TGI was greater than 100 µM.
Still for that read-out and setting: under `NCCCNCCCCNCCCN` stands greater than 63.7 µM; under `CC1(C)OC2C(O)CN3CCS[C@H]3C2O1` (stereo not given in full), greater than 100 µM.
On the same count and under the same terms, the value for `O=c1c2c(-c3ccccc3)onc2n(-c2ccccc2)c(=O)n1-c1ccccc1` was greater than 100 µM; that for `CCCCCC(/C=C/C1CCC(=O)C1CC#C[Si](C)(C)C)OCc1ccccc1` (stereo not given) was 40.6 µM; that for `CC1(C)OC(=C(C#N)C#N)C(C#N)=C1/C=C/c1ccncc1` was 3.65 µM.

The subject of the next test is UACC-257 melanoma. Briefly: inhibition of tumour cell growth, NCI panel, 48 h.
Consider `COc1cc(C2SCC(=O)N2c2ccc(Cl)c(Cl)c2)cc(OC)c1OC` (stereo not given), for which the TGI is greater than 100 µM.
Same read-out and setting: the value for `C[C@@]12CCC3C1C=C1C(=O)c4cc(O)ccc4C(=O)[C@]1(O2)[C@@]3(C)C=O` was 18.7 µM; that for `C[C@H]1C2Cc3cc(N)ccc3[C@@]1(C)CCN2CCc1ccccc1` was greater than 100 µM.
On the same count and under the same terms, under `NCCCNCCCCNCCCN` stands greater than 100 µM; under `CC1(C)OC2C(O)CN3CCS[C@H]3C2O1` (stereo not given in full), greater than 100 µM.
Same read-out and setting: the value for `O=c1c2c(-c3ccccc3)onc2n(-c2ccccc2)c(=O)n1-c1ccccc1` was 53 µM.
With `CCCCCC(/C=C/C1CCC(=O)C1CC#C[Si](C)(C)C)OCc1ccccc1` (stereo not given), the TGI worked out at 39.6 µM.
For the compound `CC1(C)OC(=C(C#N)C#N)C(C#N)=C1/C=C/c1ccncc1`, the TGI was found to be 8.27 µM.
